Measurements as given in US9512139B2, “Conformationally constrained, fully synthetic macrocyclic compounds” (POLYPHOR AG, priority 2009, dated 2016).

Assays:
[1] = biological target: T1, Motilin Receptor (Homo sapiens, UniProt O43193); test: Ca2+ assay (FLIPR) for the GPCR motilin receptor, agonist and antagonist mode; assay type: cell-based; conditions: antagonist mode
T1 construct: host or cells: Ca2+ optimized hematopoietic cell lines (rat)
Method: Ca^2+ Assays for the GPCRs Motilin Receptor, Prostaglandin F (FP) Receptor, 5-hydroxytryptamine 2B (5-HT2B) Receptor, and Purinoreceptor P2Y1
Assays were performed using on a FLIPR^TETRA fluorometric imaging plate reader (Molecular Devices) with ScreenWorks Version 2 (Molecular Devices) as device operating and data analysis software.
Dose dependent agonist and antagonist activities were determined. Percentage activation and percentage inhibition values were determined.
Percentage activation was determined upon initial addition of the sample compounds followed by 10 minutes incubation at 25° C. Following compound incubation, reference agonists were added at EC80 to determine percentage inhibition.
Reference agonists were purchased from reputable commercial vendors and prepared according to each ligand's specifications. All handling of ligands were done to ensure proper control throughout the experiments.
Example compounds were weighed on a Microbalance (Mettler MX5) and dissolved in 100% DMSO to a final concentration of 2.5 mM and subsequently diluted into the assay buffer.
The Assay buffer was a supplemented HBSS (Hank's Balanced Salt Solution). HBSS was supplemented with 20 mM HEPES (4-(2-hydroxyethyl)-piperazin-1-ethansulfonic acid) and 2.5 mM Probenecid (Sigma P8761).
GPCR assays were performed using Ca^2+ optimized hematopoietic cell lines (rat) with cultures never exceeding 90% confluency. […] After seeding, the assay plates were incubated for forty-five (45) minutes at room temperature. After room temperature incubation, the assay plates were incubated at 37° C. 5% CO2 for 24 hours prior to assaying.
All GPCR assays were performed using Fluo-8 Ca^2+ dye. Ca^2+ dye was prepared at 1× dye concentration in GPCR assay buffer. After 24 hours of incubation, cells were washed with GPCR assay buffer, and then Ca^2+-dye (100 μL/well) was added.
The plates were incubated for 90 minutes at 30° C. 5% CO2 prior to FLIPR assay.
Compound plates were prepared to add 50 μL/well during the agonist assay mode. During the FLIPR assay, 50 μL/well from the compound plate was diluted 3-fold into the existing 100 μL/well from the dye loading step. Therefore all compounds were prepared as 3× the final concentration desired in the assay.
After completion of the first single addition assay run, assay plate was removed from the FLIPR Tetra and placed at 25° C. for seven (7) minutes before antagonist assay.
Using the EC80 values determined during the agonist assay, all pre-incubated sample compound and reference antagonist (if applicable) wells were stimulated at the EC80 of the reference agonist. As reference ligands for the first three assays their obvious natural ligands motilin, prostaglandin F2α, and serotonin (5-HT, 5-Hydroxytryptamine) were used; and for the P2Y1 assay 2MeSATP (2-methyl-thio-adeno-sine 5′-triphosphate, i.e. (2R,3S,4R)-5-(6-amino-2-methylsulfanyl-purin-9-yl)-3,4-dihydroxy-tetrahydrofuran-2-yl]methyl (hydroxy-phosphonooxy-phosphoryl)hydrogen phosphate) was applied.
After the addition of the reference agonist fluorescence was monitored for 180 sec using FLIPR Tetra.
Data Analysis and Results:
From the FLIPR data, with negative control correction enabled, the maximum statistic for each well was exported and percentage activation relative to Emax control was calculated.

[2] = in vitro; assay type: in vitro ADME, human; conditions: human, plasma, 10 µM; for Plasma Stability 240 min hum [% remain.]: 4 h
Method: (§1) Example compounds were dissolved in DMSO/H2O 90:10 to a final concentration of 10 mM for plasma stability determination and metabolic stability determination.
(§2) Human plasma (3-5 donors, Blutspendedienst SRK, Basel) and CD-1 mouse plasma (mixed gender pool >50 animals, Innovative Research, CA, USA) are both sodium citrate stabilized. The assay is performed in triplicates at 10 μM compound concentration and 37° C. Samples are taken at 0, 15, 60, and 240 minutes and stopped by precipitation with 2 volumes of acetonitrile. The supernatant is collected, evaporated and reconstituted in a 5% acetonitrile solution to be analyzed by HPLC/MS/MS. The resulting peak area counts are expressed in percent of the 0 value and used to determine the endpoint stability in % and the half life in minutes. In order to monitor assay integrity the degradation of propantheline is assayed with every experimental set.

[3] = Metabolic stability assay, human microsomes; assay type: in vitro ADME; conditions: human, microsomes; for Metabolic Stability T½ [min] hum / Metabolic Stability 60 min hum [% remain.]: both, 10 µM; for Metabolic Stability 60 min hum [% remain.]: 1 h; for half-life at 10 µM: both sexes
[4] = in vitro; assay type: in vitro ADME, mouse; conditions: both, CD-1, mouse, plasma, 10 µM; for Plasma Stability 240 min mouse [% remain.]: 4 h
Method: as §1, §2

[5] = Metabolic stability assay, CD-1 mouse microsomes; assay type: in vitro ADME; conditions: both, CD-1, mouse, microsomes, 10 µM; for Metabolic Stability 60 min mouse [% remain.]: 1 h
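Wherever Plasma Stability 240 min mouse [% remain.] is given: sodium citrate stabilized mouse plasma, parent compound quantified by HPLC/MS/MS relative to its peak area at time zero, run in triplicate.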
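Wherever Plasma Stability T½ [min] mouse is given: sodium citrate stabilized mouse plasma, parent compound quantified by HPLC/MS/MS relative to its peak area at time zero, run in triplicate.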

T1 sequence (O43193 whole entry, species assumed): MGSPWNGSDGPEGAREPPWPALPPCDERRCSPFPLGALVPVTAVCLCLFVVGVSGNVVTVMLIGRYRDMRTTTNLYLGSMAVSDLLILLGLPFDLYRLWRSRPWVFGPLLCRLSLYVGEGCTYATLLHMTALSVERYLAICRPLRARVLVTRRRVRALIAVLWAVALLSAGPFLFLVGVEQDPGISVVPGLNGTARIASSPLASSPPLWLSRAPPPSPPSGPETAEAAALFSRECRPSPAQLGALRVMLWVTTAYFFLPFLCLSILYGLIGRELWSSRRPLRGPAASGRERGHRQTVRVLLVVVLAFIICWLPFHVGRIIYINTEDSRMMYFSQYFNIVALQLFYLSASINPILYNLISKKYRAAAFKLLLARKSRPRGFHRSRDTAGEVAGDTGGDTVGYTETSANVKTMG

inhibition at 10 µM [1] [%]	Plasma Stability T½ [min] hum [2] [min]	Plasma Stability 240 min hum [% remain.] [2] [% remain.]	Metabolic Stability T½ [min] hum [3] [min]	Metabolic Stability 60 min hum [% remain.] [3] [% remain.]	IC50 [1] [µM]	Plasma Stability T½ [min] mouse [4] [min]	Plasma Stability 240 min mouse [% remain.] [4] [% remain.]	Metabolic Stability T½ [min] mouse [5] [min]	Metabolic Stability 60 min mouse [% remain.] [5] [% remain.]	half-life at 10 µM [3] [h]	SMILES
23	–	–	–	–	–	–	–	–	–	–	CN(C)CCCNC(=O)[C@@H]1CCC(=O)N(C)CC(=O)N2C[C@@H](NC(=O)Cc3cccc4ccccc34)C[C@H]2COc2ccc(F)cc2C(=O)N1C [Ex. 488, (2S,11S,19aS)-N-[3-(dimethylamino)propyl]-15-fluoro-7,12-dimethyl-2-{[2-(1-naphthyl)acetyl]amino}-5,8,13-trioxo-2,3,6,7,8,9,10,11,12,13,19,19a-dodecahydro-1H,5H-pyrrolo[2,1-c] [1,4,7,12] benzoxatriazacyclopentadecine-11-carboxamide]
100	> 240	100	> 60	55	0.023	> 240	100	> 60	85	–	CN1CC(=O)N2C[C@@H](NC(=O)Cc3cccc4ccccc34)C[C@H]2COc2ccc(F)cc2C(=O)N(C)[C@H](C(=O)NCCN)CCC1=O [Ex. 483, (2S,11S,19aS)-N-(2-aminoethyl)-15-fluoro-7,12-dimethyl-2-{[2-(1-naphthyl)acetyl]amino)-5,8,13-trioxo-2,3,6,7,8,9,10,11,12, 13,19,19a-dodecahydro-1H,5H-pyrrolo [2,1-c] [1,4,7,12]benzoxatriazacyclopentadecine-11-carboxamide]
26	–	–	–	–	–	–	–	–	–	–	CN(C)CCNC(=O)[C@@H]1CCC(=O)N(C)CC(=O)N2C[C@@H](NC(=O)Cc3cccc(C(F)(F)F)c3)C[C@H]2COc2ccc(F)cc2C(=O)N1C [Ex. 495, (2S,11S,19aS)-N-[2-(dimethylamino)ethyl]-15-fluoro-7,12-dimethyl-5,8,13-trioxo-2-({2-[3-(trifluoromethyl)phenyl]acetyl}amino)-2,3,6,7,8,9,10,11,12,13,19,19a-dodecahydro-1H,5H-pyrrolo[2,1-c] [1,4,7,12] benzoxatriazacyclopentadecine-11-carboxamide]
29	–	–	–	–	–	–	–	–	–	–	CN(C)CCNC(=O)[C@@H]1CCC(=O)N(C)CC(=O)N2C[C@@H](NC(=O)Cc3ccc4ccccc4c3)C[C@H]2COc2ccc(F)cc2C(=O)N1C [Ex. 48, (2S,11S,19aS)-N-[2-(dimethylamino)ethyl]-15-fluoro-7,12-dimethyl-2-{[2-(2-naphthyl)acetyl]amino}-5,8,13-trioxo-2,3,6,7,8,9,10,11,12,13,19,19a-dodecahydro-1H,5H-pyrrolo[2,1-c] [1,4,7,12] benzoxatriazacyclopentadecine-11-carboxamide]
98	> 240	83	–	10	0.16	> 240	96	> 60	83	0.4	CN(C)CCNC(=O)[C@@H]1CCC(=O)N(C)CC(=O)N2C[C@@H](NC(=O)Cc3cccc4ccccc34)C[C@H]2COc2ccc(F)cc2C(=O)N1C [Ex. 49, (2S,11S,19aS}-N-[2-(dimethylamino)ethyl]-15-fluoro-7,12-dimethyl-2-{[2-(1-naphthyl)acetyl]amino}-5,8,13-trioxo-2,3,6,7,8,9,10,11,12,13,19,19a-dodecahydro-1H,5H-pyrrolo[2,1-c] [1,4,7,12] benzoxatriazacyclopentadecine-11-carboxamide]
93	> 240	100	–	13	0.18	> 240	98	> 60	100	0.383	CN(C)CCNC(=O)[C@@H]1CCC(=O)N(C)CC(=O)N2C[C@@H](NCCc3cccc4ccccc34)C[C@H]2COc2ccc(F)cc2C(=O)N1C [Ex. 486, (2S,11S,19aS)-N-[2-(dimethylamino)ethyl]-15-fluoro-7,12-dimethyl-2-{[2-(1-naphthyl)ethyl]amino}-5,8,13-trioxo-2,3,6,7,8,9,10,11,12,13,19,19a-dodecahydro-1H,5H-pyrrolo[2,1-c] [1,4,7,12]benzoxatri-azacyclopentadecine-11-carboxamide]
99	> 240	100	–	11	0.2	> 240	90	> 60	100	0.35	CN1CC(=O)N2C[C@@H](NC(=O)Cc3cccc4ccccc34)C[C@H]2COc2ccc(F)cc2C(=O)N(C)[C@H](C(=O)NCCNC(=N)N)CCC1=O [Ex. 484, (2S,11S,19aS)-N-(2-{[amino(imino)methyl]amino}ethyl)-15-fluoro-7,12-dimethyl-2-{[2-(1-naphthyl)acetyl]amino}-5,8,13-trioxo-2,3,6,7,8,9,10,11,12,13,19,19a-dodecahydro-1H,5H-pyrrolo[2,1-c] [1,4,7,12] benzoxatriazacyclopentadecine-11-carboxamide]
31	–	–	–	–	–	–	–	–	–	–	COc1cccc(CC(=O)N[C@H]2C[C@H]3COc4ccc(F)cc4C(=O)N(C)[C@H](C(=O)NCCN(C)C)CCC(=O)N(C)CC(=O)N3C2)c1 [Ex. 496, (2S,11S,19aS)-N-[2-(dimethylamino)ethyl]-15-fluoro-2-{[2-{3-methoxyphenyl)acetyl]amino}-7,12-dimethyl-5,8,13-trioxo-2,3,6,7,8,9,10,11,12,13,19,19a-dodecahydro-1H,5H-pyrrolo[2,1-c] [1,4,7,12]benzoxatriazacyclopentadecine-11-carboxamide]
79	> 240	100	> 60	74	0.78	> 240	100	> 60	77	–	CN(C)CCNC(=O)[C@@H]1CCC(=O)N(C)CC(=O)N2C[C@@H](NC(=O)Cc3c[nH]c4ccccc34)C[C@H]2COc2ccc(F)cc2C(=O)N1C [Ex. 11, (2S,11S,19aS)-N-[2-(dimethylamino)ethyl]-15-fluoro-2-{[2-(1H-indol-3-yl)acetyl]amino}-7,12-dimethyl-5,8,13-trioxo-2,3,6,7,8,9,10,11,12,13, 19,19a-dodecahydro-1H,5H-pyrrolo[2,1-c] [1,4,7,12]benzoxatriazacyclopentadecine-11-carboxamide]
47	–	–	–	–	–	–	–	–	–	–	CC(=O)NCCNC(=O)[C@@H]1CCC(=O)N(C)CC(=O)N2C[C@@H](NC(=O)Cc3cccc4ccccc34)C[C@H]2COc2ccc(F)cc2C(=O)N1C [Ex. 487, (2S,11S,19aS)-N-[2-(acetylamino)ethyl]-15-fluoro-7,12-dimethyl-2-{[2-(1-naphthyl)acetyl]amino}-5,8,13-trioxo-2,3,6,7,8,9,10,11,12,13,19,19a-dodecahydro-1H,5H-pyrrolo[2,1-c] [1,4,7,12]benzoxatri-azacyclopentadecine-11-carboxamide]
